Values of other authors, collected in publication PMC12281572.
Values joined by “and” are separate entries in the source; they are usually repeats but may differ in a detail not shown here. Identical values can stand only once.

Test: FTIR, 4-fluorophenol as donor (the pK_BHX database, per the paper)
Conditions: CCl4; 25 C

pK_BHX (log10 Kf of the 1:1 H-bond complex with 4-fluorophenol, by FTIR)	Compound
1.41 log units	O=CN(c1ccccc1)c1ccccc1
1.23 log units	COc1ccc(N(C)C(=Nc2ccc(Br)cc2)c2ccccc2)cc1
-0.13 log units	C=CSCC
1.88 log units	CCCCc1ccccn1
1.07 log units	CC(=Nc1ccc(Cl)cc1)Nc1ccc(Cl)cc1
2.22 log units	Cc1ccc(N=CNc2ccc(C)cc2)cc1
1.42 log units	Cc1ccc(N=C(c2ccccc2)N(C)c2ccc(Br)cc2)cc1
2.03 log units	O=c1ccocc1
3.16 log units	O=P(c1ccccc1)(c1ccccc1)c1ccccc1
1.76 log units	CC(=O)c1ccc(N(C)C)cc1
1.25 log units	Fc1ccc(N=C(Nc2ccccc2)c2ccccc2)cc1
1.41 log units	O=C1CCCCCC1
2.17 log units	CCN(C)C
-0.3 log units	CC(C)Cl
1.45 log units	O=C1CCCCCCC1
1.21 log units	CC1(C)CC(=O)C=C(Cl)C1
1.66 log units	Fc1cccc(C2=NCCC2)c1
0.08 log units	CCOC(=O)C(F)(F)F
2.31 log units	COc1ccc(C(=O)N(C)C)cc1
0.08 log units	C=CCSC

pK_BHX (log10 Kf of the 1:1 H-bond complex with 4-fluorophenol, by FTIR)	Compound
1.76 log units	CC(C)c1ccccn1
0.17 log units	CCCCCCCCSC
2.13 log units	C(=Nc1ccccc1)Nc1ccccc1
-0.74 log units	CC1=CCCCC1
2.68 log units	c1cc(N2CCCCC2)ccn1
-0.38 log units	CCCCCCl
0.88 log units	CCOC(=O)c1ccc(F)cc1
0.68 log units	C#CC(C)=O
2.36 log units	CN(C)C=NC1CC1
0.53 log units	N#Cc1cccc(C(F)(F)F)c1
0.99 log units	CN(C(=Nc1ccc(Br)cc1)c1ccccc1)c1ccc(Br)cc1
1.83 log units	CNC(=Nc1ccccc1)c1ccccc1
0.63 log units	C1COCOC1
0.97 log units	COc1ccc(C#N)cc1
0.54 log units	N#Cc1ccc(C(F)(F)F)cc1
1.36 log units	CC(=Nc1ccc(Br)cc1)Nc1ccccc1
1.63 log units	CCN(C#N)CC
1.31 log units	Brc1cccnc1
2.3 log units	CN(C)C(=O)C12CC3CC(CC(C3)C1)C2
1.22 log units	O=C1CCCCCCCCCCCCCC1

pK_BHX (log10 Kf of the 1:1 H-bond complex with 4-fluorophenol, by FTIR)	Compound
2.85 log units	[O-][n+]1ccc(-c2ccccc2)cc1
1.11 log units	CN(C(=Nc1ccc(Br)cc1)c1ccccc1)c1ccccc1
1.95 log units	CCOC(=O)N(CC)CC
-0.28 log units	c1ccc(C23CC4CC(CC(C4)C2)C3)cc1
1.3 log units	c1cocn1
-0.22 log units	CC(C)(C)Br
1.21 log units	CCCCC(=O)CCCC
0.43 log units	CNc1ccc(C)cc1
2.27 log units	CCCCCCCCN
1.58 log units	CCN(C=C[N+](=O)[O-])CC
1.63 log units	COc1ccc(N(C)C(=Nc2ccc(C)cc2)c2ccccc2)cc1
2.0 log units	CN1CCCNC1=S
0.97 log units	N#CC1CCCCC1
1.13 log units	C1CCC2OC2C1 (stereo not shown)
1.43 log units	CC(=Nc1ccc(Br)cc1)N(C)c1ccc(C)cc1
2.06 log units	CC(=NC(=S)N(C)C)N(C)C
2.04 log units	CCCCN1CCCC1
0.86 log units	O=[N+]([O-])c1cccc(N=C(Nc2ccccc2)c2ccccc2)c1

Compound	pK_BHX (log10 Kf of the 1:1 H-bond complex with 4-fluorophenol, by FTIR)
CC1CCCO1 (stereo not shown)	1.34 log units
COCCOC	1.02 log units
c1ccc2c(c1)cnc1ccccc12	1.87 log units
c1ccc2c(c1)Cc1ccccc1-2	-0.38 log units
C1CCOC1	1.28 log units
CCOC(=O)c1ccccc1	0.94 log units
Cc1cccnc1	2.0 log units
CC12CCC(CC1)C(C)(C)O2	1.38 log units
C1COCCOCCOCCOCCO1	1.12 log units
CCCN(CCC)CCC	1.47 log units
CCN(CC)C(=O)c1cccnc1	1.98 log units and 1.63 log units
O=C1CCCCC1	1.39 log units
CN(C)Cc1ccccc1	1.59 log units
CS(C)=O	2.54 log units
CC(=O)c1ccc2ccccc2c1	1.13 log units
Nc1ccccn1	2.12 log units
O	0.65 log units
CCCCCl	-0.41 log units
CCOC(=O)c1ccc(Br)cc1	0.78 log units
c1cnccn1	0.92 log units
C=Cc1ccncc1	1.95 log units
O=CN1CCCC1	2.31 log units
CC(C)I	-0.37 log units
NCCN	2.25 log units
